Laboratory results as given in ChEMBL document CHEMBL2203254, “Anion inhibition studies of the fastest carbonic anhydrase (CA) known, the extremo-CA from the bacterium Sulfurihydrogenibium azorense” (Bioorg Med Chem Lett, 2012).
Structures can show the parent of a compound that is named as a salt.

Target: Carbonic anhydrase 2 (Homo sapiens, UniProt P00918)
Test: Inhibition of human cytosolic carbonic anhydrase 2 preincubated for 15 mins by stopped flow CO2 hydration assay
Work on `O=S(=O)(O)ONOS(=O)(=O)O` [SODIUM IMINODISULFATE] yielded a Ki of 760 µM.

Target: Carbonic anhydrase 1 (Homo sapiens, UniProt P00915)
Sequence (P00915 whole entry): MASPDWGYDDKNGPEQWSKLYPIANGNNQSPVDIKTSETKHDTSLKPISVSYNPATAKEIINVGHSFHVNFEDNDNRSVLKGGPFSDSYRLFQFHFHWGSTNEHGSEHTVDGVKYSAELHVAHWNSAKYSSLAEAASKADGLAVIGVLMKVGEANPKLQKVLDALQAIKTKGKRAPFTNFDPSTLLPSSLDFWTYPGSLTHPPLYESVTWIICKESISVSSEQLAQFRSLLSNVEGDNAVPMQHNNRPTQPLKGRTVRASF
Test: Inhibition of human cytosolic carbonic anhydrase 1 preincubated for 15 mins by stopped flow CO2 hydration assay
For `O=S(=O)(O)ONOS(=O)(=O)O` [SODIUM IMINODISULFATE], the Ki was 310 µM.
Work on `N=C=[Se]` [SODIUM ISOSELENOCYANATE] yielded a Ki of 85 µM.

Target: not listed separately
Test: Inhibition of Sulfurihydrogenibium azorense alpha-carbonic anhydrase preincubated for 15 mins by stopped flow CO2 hydration assay
Compound `CC(=O)Nc1nnc(S(N)(=O)=O)s1` [ACETAZOLAMIDE] has a Ki of 0.0009 µM.
Work on `CCN(CC)C(=S)S` [DITIOCARB SODIUM] yielded a Ki of 3 µM.
In the case of `O=[As](O)(O)c1ccccc1` [PHENYLARSONIC ACID SODIUM SALT], the Ki is reported as 8 µM.
`OB(O)c1ccccc1` [PHENYLBORONIC ACID SODIUM SALT] gave a Ki of 7 µM.
In the case of `[N-]=[N+]=[N-]` [SODIUM AZIDE], the Ki is reported as 340 µM.
Compound `O=C([O-])O.[Na+]` [SODIUM BICARBONATE] has a Ki of 15700 µM.
`O=S([O-])O.[Na+]` [SODIUM BISULFITE] gave a Ki of 950 µM.
`[Br-].[Na+]` [SODIUM BROMIDE] gave a Ki of 940 µM.
Compound `O=C([O-])[O-].[Na+].[Na+]` [SODIUM CARBONATE] has a Ki of 7600 µM.
Compound `S=C(S)S` [SODIUM CARBONOTRITHIOATE] has a Ki of 39 µM.
With `[Cl-].[Na+]` [SODIUM CHLORIDE] the Ki was 850 µM.
Work on `[F-].[Na+]` [SODIUM FLUORIDE] yielded a Ki of 980 µM.
For `S` [SODIUM HYDROSULFIDE], the Ki was 380 µM.
In the case of `O=S(=O)(O)ONOS(=O)(=O)O` [SODIUM IMINODISULFATE], the Ki is reported as 520 µM.
Work on `[I-].[Na+]` [SODIUM IODIDE] yielded a Ki of 870 µM.
`N=C=[Se]` [SODIUM ISOSELENOCYANATE] gave a Ki of 490 µM.
`N=C=S` [SODIUM ISOTHIOCYANATE] showed a Ki of 580 µM.
Work on `O=[N+]([O-])[O-].[Na+]` [SODIUM NITRATE] yielded a Ki of 760 µM.
Compound `O=NO` [SODIUM NITRITE] has a Ki of 580 µM.
Work on `[O-][Cl+3]([O-])([O-])O` [SODIUM PERCHLORATE] yielded a Ki of over 200000 µM.
With `O=S(=O)(O)OOS(=O)(=O)O` [SODIUM PERSULFATE] the Ki was 32900 µM.
Work on `O=P(O)(O)OP(=O)(O)O` [SODIUM PYROPHOSPHATE] yielded a Ki of 660 µM.
With `O=[Se](=O)(O)O` [SODIUM SELENATE] the Ki was 510 µM.
`NS(=O)(=O)O` [SODIUM SULFAMATE] gave a Ki of 5 µM.
With `O=S(=O)([O-])[O-].[Na+].[Na+]` [SODIUM SULFATE ANHYDROUS] the Ki was 10000 µM.
In the case of `O=[Te](=O)(O)O` [SODIUM TELLURATE], the Ki is reported as 410 µM.
Work on `O=BOB(O)OB(O)OB=O` [SODIUM TETRABORATE] yielded a Ki of 490 µM.
For `F[B-](F)(F)F.[Na+]` [SODIUM TETRAFLUOROBORATE], the Ki was over 200000 µM.
With `NS(N)(=O)=O` [SULFURIC DIAMIDE SODIUM SALT] the Ki was 4 µM.
